Measurements from publication PMC5413351, “Structural basis of protein translocation by the Vps4-Vta1 AAA ATPase” (eLife, 2017).
Where a SMILES comes first, the peptide text is derived from it.

Target: T1, Vps4^101-437-Hcp1 (UniProt P52917+Q9I747)
T1 construct: 6xHis (TEV-cleavable) (N, cleaved yes); Pseudomonas aeruginosa Hcp1 fusion partner (candidate entry Q9I747, HCP1_PSEAE); made in house; host or cells: E. coli BL21(DE3)RIL
T1 sequence (P52917+Q9I747 with tags, fused parts or gaps): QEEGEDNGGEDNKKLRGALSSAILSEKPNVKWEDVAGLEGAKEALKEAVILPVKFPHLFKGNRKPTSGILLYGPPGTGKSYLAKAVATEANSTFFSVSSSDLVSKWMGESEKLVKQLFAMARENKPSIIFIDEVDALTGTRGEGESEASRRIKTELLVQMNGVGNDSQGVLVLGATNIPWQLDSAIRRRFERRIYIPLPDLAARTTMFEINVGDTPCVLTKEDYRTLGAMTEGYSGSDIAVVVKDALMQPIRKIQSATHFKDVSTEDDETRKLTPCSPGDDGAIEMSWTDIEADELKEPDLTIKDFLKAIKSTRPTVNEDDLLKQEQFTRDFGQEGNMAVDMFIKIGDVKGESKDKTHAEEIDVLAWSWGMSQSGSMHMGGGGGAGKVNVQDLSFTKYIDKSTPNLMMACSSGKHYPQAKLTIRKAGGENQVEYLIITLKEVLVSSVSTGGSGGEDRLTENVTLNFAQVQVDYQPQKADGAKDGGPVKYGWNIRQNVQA
T1 sequence (Q06263 280-330 partner limits assumed): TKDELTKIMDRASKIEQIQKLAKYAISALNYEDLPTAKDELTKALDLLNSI
Assay: Fluorescence polarization binding of fluorescently labeled ESCRT-III peptide to Vps4^101-437-Hcp1
Design: species or system S. cerevisiae
Conditions: 2:1 Vta1^VSL:Vps4 subunits, 1 mM ADP·BeFx, 1 nM fluorescent peptide, 20 mM HEPES pH 7.4, 100 mM NaCl, 10 mM MgCl2, 1 mM DTT, room temperature; per Vps4 hexamer; global fit of four independent experiments
Description: Fluorescence polarization assay for ESCRT-III peptide binding
When equilibrium was reached, parallel and perpendicular fluorescence intensities were measured on a Biotek Synergy Neo HTS microplate reader using an excitation wavelength of 485 nm and an emission wavelength of 528 nm.

CC[C@H](C)[C@H](NC(=O)[C@H](CCC(=O)O)NC(=O)[C@H](CC(=O)O)NC(=O)[C@H](CC(C)C)NC(=O)[C@@H](NC(=O)[C@H](CCCCN)NC(=O)[C@H](CC(N)=O)NC(=O)[C@@H](NC(=O)[C@@H](NC(=O)[C@H](CCC(=O)O)NC(=O)[C@H](CC(=O)O)NC(=O)c1ccc2c(c1)C(=O)OC21c2ccc(O)cc2Oc2cc(O)ccc21)[C@@H](C)CC)C(C)C)C(C)C)C(=O)NCC(=O)N[C@H](C(=O)N[C@@H](CC(=O)O)C(=O)N[C@@H](CC(C)C)C(=O)N[C@@H](CC(N)=O)C(=O)N[C@@H](CO)C(=O)N[C@@H](CCC(N)=O)C(=O)N[C@@H](CC(C)C)C(=O)N[C@@H](CCC(N)=O)C(N)=O)C(C)C [Peptide ‘20’] (HELM PEPTIDE1{[O=C1OC2(c3ccc(O)cc3Oc3cc(O)ccc32)c2ccc(C(=O)[*:2])cc21].D.E.I.V.N.K.V.L.D.E.I.G.V.D.L.N.S.Q.L.Q.[am]}$$$$V2.0)
Kd: 178 nM
